Patent US20240083845A1 (priority 2020, published 2024)

Target: SARS-CoV-2 Mpro (Severe acute respiratory syndrome coronavirus 2, UniProt P0DTD1)
Experiment: SARS-CoV-2 Mpro enzyme assay (FRET)
Assay type: biochemical
Settings: FRET substrate Dabcyl-KTSAVLQSGFRKM-E(Edans)-Amide, 20 nM enzyme, 30 min preincubation at 30° C., mean n=2; read-out: SARS-CoV-2 Mpro enzyme assay pKi (converted)

| SMILES | Ki |
| --- | --- |
| NC(=O)C(=O)C(C[C@@H]1CCNC1=O)NC(=O)[C@H](CC1CC1)NC(=O)CCc1ccccc1 (stereo partly drawn) [Example 8, 3-((S)-3-cyclopropyl-2-(3-phenylpropanamido)propanamido)-2-oxo-4-((S)-2-oxopyrrolidin-3-yl)butanamide] | 0.0501 µM |
| CC(C)(C)C[C@H](NC(=O)/C=C/c1ccc(Cl)cc1F)C(=O)NC(C[C@@H]1CCNC1=O)C(=O)C(=O)NC1CC1 (stereo partly drawn) [Example 11, (2S)-2-((E)-3-(4-chloro-2-fluorophenyl)acrylamido)-N-(4-(cyclopropylamino)-3,4-dioxo-1-((S)-2-oxopyrrolidin-3-yl)butan-2-yl)-4,4-dimethylpentanamide] | 100000 µM |
| NC(=O)C(=O)C(C[C@@H]1CCNC1=O)NC(=O)[C@H](CC1CC1)NC(=O)OCc1ccccc1 (stereo partly drawn) [Example 3, benzyl ((2S)-1-((4-amino-3,4-dioxo-1-((S)-2-oxopyrrolidin-3-yl)butan-2-yl)amino)-3-cyclopropyl-1-oxopropan-2-yl)carbamate] | 0.0251 µM |
| CC(C)(C)C[C@H](NC(=O)C[C@H](c1ccccc1)C(F)(F)F)C(=O)NC(C[C@@H]1CCNC1=O)C(=O)C(=O)NC1CC1 (single isomer, unassigned) [Example 17] | 0.0126 µM |
| C[C@H](CC(=O)N[C@@H](CC(C)(C)C)C(=O)NC(C[C@@H]1CCNC1=O)C(=O)C(=O)NC1CC1)c1ccccc1 (stereo partly drawn) [Example 13, (2S)-N-(4-(cyclopropylamino)-3,4-dioxo-1-((S)-2-oxopyrrolidin-3-yl)butan-2-yl)-4,4-dimethyl-2-((R)-3-phenylbutanamido)pentanamide] | 0.0158 µM |
| O=C(/C=C/c1ccc(Cl)cc1Cl)N[C@@H](CC1CC1)C(=O)NC(C[C@@H]1CCNC1=O)C(=O)C(=O)NC1CC1 (stereo partly drawn) [Example 25, N-cyclopropyl-3-((S)-3-cyclopropyl-2-((E)-3-(2,4-dichlorophenyl)acrylamido)propanamido)-2-oxo-4-((S)-2-oxopyrrolidin-3-yl)butanamide] | 0.01 µM |
| C[C@@H](CC(=O)N[C@@H](CC(C)(C)C)C(=O)NC(C[C@@H]1CCNC1=O)C(=O)C(=O)NC1CC1)c1ccccc1 (stereo partly drawn) [Example 12, (2S)-N-(4-(cyclopropylamino)-3,4-dioxo-1-((S)-2-oxopyrrolidin-3-yl)butan-2-yl)-4,4-dimethyl-2-((S)-3-phenylbutanamido)pentanamide] | 0.0158 µM |
| NC(=O)C(=O)C(CC1CCCC1)NC(=O)[C@H](CC1CC1)NC(=O)/C=C/c1ccc(Cl)cc1F (stereo partly drawn) [Example 7, 3-((S)-2-((E)-3-(4-chloro-2-fluorophenyl)acrylamido)-3-cyclopropylpropanamido)-4-cyclopentyl-2-oxobutanamide] | 7.94 µM |
| CCNC(=O)C(=O)C(C[C@@H]1CCNC1=O)NC(=O)[C@H](CC(C)(C)C)NC(=O)/C=C/c1ccc(Cl)cc1Cl (stereo partly drawn) [Example 26, (2S)-2-((E)-3-(2,4-dichlorophenyl)acrylamido)-N-(4-(ethylamino)-3,4-dioxo-1-((S)-2-oxopyrrolidin-3-yl)butan-2-yl)-4,4-dimethylpentanamide] | 0.01 µM |
| NC(=O)C(=O)C(C[C@@H]1CCNC1=O)NC(=O)[C@H](CC1CC1)NC(=O)/C=C/c1ccc(Cl)cc1F (stereo partly drawn) [Example 1, 3-((S)-2-((E)-3-(4-chloro-2-fluorophenyl)acrylamido)-3-cyclopropylpropanamido)-2-oxo-4-((S)-2-oxopyrrolidin-3-yl)butanamide] | 0.0126 µM |
| CC[C@H](CC(=O)N[C@@H](CC1CC1)C(=O)NC(C[C@@H]1CCNC1=O)C(=O)C(=O)NC1CC1)c1ccccc1 (stereo partly drawn) [Example 33, (3R)-N-((2S)-3-cyclopropyl-1-((4-(cyclopropylamino)-3,4-dioxo-1-((S)-2-oxopyrrolidin-3-yl)butan-2-yl)amino)-1-oxopropan-2-yl)-3-phenylpentanamide] | 0.0251 µM |
| CC[C@@H](CC(=O)N[C@@H](CC1CC1)C(=O)NC(C[C@@H]1CCNC1=O)C(=O)C(=O)NC1CC1)c1ccccc1 (stereo partly drawn) [Example 32, (3 S)-N-((2S)-3-cyclopropyl-1-((4-(cyclopropylamino)-3,4-dioxo-1-((S)-2-oxopyrrolidin-3-yl)butan-2-yl)amino)-1-oxopropan-2-yl)-3-phenylpentanamide] | 0.0126 µM |
| NC(=O)C(=O)C(CC1CC1)NC(=O)[C@H](CC1CC1)NC(=O)/C=C/c1ccc(Cl)cc1F (stereo partly drawn) [Example 6, 3-((S)-2-((E)-3-(4-chloro-2-fluorophenyl)acrylamido)-3-cyclopropylpropanamido)-4-cyclopropyl-2-oxobutanamide] | 5.01 µM |
| CCNC(=O)C(=O)C(C[C@@H]1CCNC1=O)NC(=O)[C@H](CC1CC1)NC(=O)/C=C/c1ccc(Cl)cc1Cl (stereo partly drawn) [Example 24, 3-((S)-3-cyclopropyl-2-((E)-3-(2,4-dichlorophenyl)acrylamido)propanamido)-N-ethyl-2-oxo-4-((S)-2-oxopyrrolidin-3-yl)butanamide] | 0.0126 µM |
| CC(C)(C)C[C@H](NC(=O)/C=C/c1ccc(Cl)cc1Cl)C(=O)NC(C#N)C[C@@H]1CCNC1=O (stereo partly drawn) [Example 9, (2S)-N-(1-Cyano-2-((S)-2-oxopyrrolidin-3-yl)ethyl)-2-((E)-3-(2,4-dichlorophenyl)acrylamido)-4,4-dimethylpentanamide] | 0.398 µM |
| O=C(/C=C/c1ccc(Cl)cc1F)N[C@@H](CC1CCC1)C(=O)NC(C[C@@H]1CCNC1=O)C(=O)C(=O)NC1CC1 (stereo partly drawn) [Example 31, 3-((S)-2-((E)-3-(4-chloro-2-fluorophenyl)acrylamido)-3-cyclobutylpropanamido)-N-cyclopropyl-2-oxo-4-((S)-2-oxopyrrolidin-3-yl)butanamide] | 0.0251 µM |
| CC(C)C[C@H](NC(=O)/C=C/c1ccc(Cl)cc1F)C(=O)NC(C[C@@H]1CCNC1=O)C(=O)C(N)=O (stereo partly drawn) [Example 18, (2S)-N-(4-amino-3,4-dioxo-1-((S)-2-oxopyrrolidin-3-yl)butan-2-yl)-2-((E)-3-(4-chloro-2-fluorophenyl)acrylamido)-4-methylpentanamide] | 0.0126 µM |
| CC(C)(C)C[C@H](NC(=O)/C=C/c1ccc(Cl)cc1Cl)C(=O)NC(C[C@@H]1CCNC1=O)C(=O)C(N)=O (stereo partly drawn) [Example 27, (2S)-N-(4-amino-3,4-dioxo-1-((S)-2-oxopyrrolidin-3-yl)butan-2-yl)-2-((E)-3-(2,4-dichlorophenyl)acrylamido)-4,4-dimethylpentanamide] | 0.00794 µM |
| NC(=O)C(=NO)C(C[C@@H]1CCNC1=O)NC(=O)[C@H](CC1CC1)NC(=O)/C=C/c1ccc(Cl)cc1F (stereo partly drawn) [Example 4, 3-((S)-2-((E)-3-(4-chloro-2-fluorophenyl)acrylamido)-3-cyclopropylpropanamido)-2-(hydroxyimino)-4-((S)-2-oxopyrrolidin-3-yl)butanamide] | 1 µM |
| CCNC(=O)C(=O)C(C[C@@H]1CCNC1=O)NC(=O)[C@H](CC(C)(C)C)NC(=O)/C=C/c1ccc(Cl)cc1F (stereo partly drawn) [Example 23, (2S)-2-((E)-3-(4-chloro-2-fluorophenyl)acrylamido)-N-(4-(ethylamino)-3,4-dioxo-1-((S)-2-oxopyrrolidin-3-yl)butan-2-yl)-4,4-dimethylpentanamide] | 0.0126 µM |
| NC(=O)C(=O)C(C[C@@H]1CCNC1=O)NC(=O)[C@H](CC1CC1)NC(=O)/C=C/c1ccccc1 (stereo partly drawn) [Example 2, 3-((S)-2-cinnamamido-3-cyclopropylpropanamido)-2-oxo-4-((S)-2-oxopyrrolidin-3-yl)butanamide] | 0.02 µM |
